Measured values: publication PMC7027535 (Journal of Pineal Research, 2020)

Target: T1, Notum (Homo sapiens, UniProt Q6P988, C330S)
T1 sequence (Q6P988 81-451 C330S): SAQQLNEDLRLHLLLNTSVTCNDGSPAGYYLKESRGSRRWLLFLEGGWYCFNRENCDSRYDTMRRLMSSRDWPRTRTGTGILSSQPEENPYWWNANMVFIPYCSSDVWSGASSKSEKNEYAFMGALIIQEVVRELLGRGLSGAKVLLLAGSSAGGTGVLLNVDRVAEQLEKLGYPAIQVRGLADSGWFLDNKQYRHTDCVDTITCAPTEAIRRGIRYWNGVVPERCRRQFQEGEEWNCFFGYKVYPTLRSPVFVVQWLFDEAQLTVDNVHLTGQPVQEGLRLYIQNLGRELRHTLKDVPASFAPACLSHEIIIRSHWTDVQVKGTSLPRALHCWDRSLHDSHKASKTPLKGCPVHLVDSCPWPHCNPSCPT
Assay: X-ray crystal structure ([…] Å); thermal shift (Tm […] to […] °C); OPTS enzyme inhibition IC50
Type: biochemical

CC(=O)NCCc1c[nH]c2ccc(O)cc12 [ASE, N‐acetylserotonin] gave an IC50 of 94 µM.
